The source of these data is patent US20230046728A1, “TECHNOLOGIES USEFUL FOR ASSESSING PERMEABILITY” (FOG PHARMACEUTICALS, INC., priority 2019, published 2023).

One series has as its target DhaA enzyme (Rhodococcus rhodochrous, UniProt P0A3G2). The series is described as follows: Cell free peptide/DhaA conversion, Mass Shifted Peptide Theoretical Max signal (Example 6). In kind it is biochemical. Particulars: DhaA converts —Cl input agent into —OH product agent, MS signal. As for the experimental part:
For the cell free systems, DPLs were diluted in a 500 μL DPW plate (library dilution plate). Individual peptides were diluted individually in low-bind tubes until making the final working dilution in PBS. At this point, the individual peptides were transferred to the library dilution plate. By having all final dilutions in one plate, a multichannel was used to transfer the diluted peptides to the cell free plates. The same design as “Source Plate” was used for the cell assay. For the peptide only plate, 45 μL of PBS was added to each well and 5 μL of the diluted library/peptide was added in triplicates. For peptide/DhaA plate, 5 μL of 50 μM DhaA enzyme was added, followed by 40 μL of PBS and 5 μL of the diluted library/peptide. Both plates were kept at the bench top thermomixer at 350 rpm and 37 ° C. overnight. The next day, 2 mL of a cell free solution was prepared with 1 mL of DMSO, 20 μL of PepMix and 980 μL of a 1:1 ratio of ACN/0.1% FA and H2O/0.1% FA. 5 μL of the cell free solution was added to a 384 well plate, followed by 45 μL of the cell free sample.
(§1) Once all samples were added (including cell free), the plate was placed in an autosampler of a mass spectrometer. For the mass spectrometry analysis, methods from example 1 were employed.
Results from certain assessment were presented blow. Cell crash method was utilized. Mass Shifted Peptide Theoretical Max signal is signal of an agent comprising —OH obtained when using the DhaA to convert input agent comprising —Cl into product agent comprising —OH form without involving cells (multiple agents may be converted simultaneously; in some embodiments, can be performed library by library). In some embodiments, each library pool plus positive and negative references was tested in a single well, which in some cases contain about a million or so cells. Each library pool is an individually prepared library with no purifications—all members mixed together along with side products, etc. “Cell Penetration Score” is calculated by dividing “Mass Shifted Peptide Signal in Cells” by “Mass Shifted Peptide Theoretical Max Signal” for each pair of replicates, then averaging those values across replicates; additionally or alternatively, COR and/or RPF may also be utilized.

Series [1] concerns Expi293 cells transfected with His-Halotag. The series is described as follows: Library cell penetration assay, cell crash method (Example 6). In kind it is in vitro ADME, human. Conditions: for Peptide Signal in Cells (from cells; agents comprising —Cl): MS signal of unconverted —Cl agent from cells; for Peptide Signal in Cells (from cells; agents comprising —Cl) / Mass Shifted Peptide Signal in Cells: library pool or individual peptide; for Mass Shifted Peptide Signal in Cells: MS signal of —OH agent from cells; for Cell Penetration Score: Mass Shifted Peptide Signal in Cells divided by Mass Shifted Peptide Theoretical Max Signal, averaged across replicates. On the procedure: Animal cells (e.g., Expi293 cells or human HEK 293 cells) were seeded in tissue culture plates and cultured in Opti-MEM media. The cells were set in PETG flasks at a concentration of 6×10^5 cells/mL and a volume of 30 mL. The cell viability was checked to be above 90-93%. The flasks were placed in a shaking incubator at 300 rpm in 8% CO2.
After 24 hours of incubation, for each flask, one 1.5-mL Lo-bind tube and one 2-mL Lo-Bind tube were prepared. In the 1.5-mL tube, 30 μg of polyhistidine-tagged halotag (His-Halotag) plasmid and Opti-MEM media were added to provide a 1-mL mixture. In the 2-mL Lo-Bind tube, 60 μL of ExpiFectamine and 940 μL of Opti-MEM were added. After 5 minutes, the plasmid/Opti-MEM mixture was added to the ExpiFectamine/Opti-MEM mixture. The combined mixture was placed in an incubator at room temperature for 20 minutes, which was subsequently added to the flask.
After 48 hours of transfection, the transfected cells were checked for viability (90% or higher). The transfected cells were transferred to a protein Lo-Bind Eppendorf 96-well deep well plate (1000 μL), where each well contained 1 million cells in 500 μL of Expi293 media.
Solutions of candidate compounds, either individual peptides or peptides from a peptide library (DPLs), were received at a stock concentration of 10 mM and diluted in DMSO and kept in a “Source Plate”. For DPLs, the peptide concentration in the “Source Plate” was 1 mM, whereas for individual peptides, the concentration was either 100 μM (for a final concentration of 100 nM) or 10 μM (for a final concentration of 10 nM). […] of the DPL or individual peptide solution was added in triplicates to the 96-well plate. The cells were kept in a shaking incubator at 300 rpm and 37 ° C., 8% CO2 overnight for about 18-20 hours.
The following day, one of the following two methods was performed: i) capture beads method or ii) cell crash method.
Cell crash method: the 96-well plate was placed in the centrifuge at 300 g for 5 minutes. 720 μL of the supernatant was removed. The cells were resuspended in residual 200 μL of media. The suspensions were transferred to a 96-well v-bottom plate, which was placed in the centrifuge at 300 g for an additional 5 minutes. All remaining media was removed. The cell pellets were washed with 200 μL of PBS, mixed and placed back in the centrifuge at 300 g and 4 ° C. for an additional 5 minutes. The supernatant was removed and 80 μL of PBS was added.
80 μL of eluted proteins/peptides from the capture beads method or the PBD solution from the cell crash method was transferred into a deepwell low binding plate (500 μL). 80 μL of ammonium hydroxide was added. The plate was kept on a shaker at 37 ° C. for 3 hours. The plate was dried in a speedvac overnight.
The following day, the dried cell pellet was resuspended in 70 μL of 47.5% water with 0.1% FA/47.5% ACN with 0.1% FA/10 μM pepmix (10 mM stock)/5% fresh DMSO. The mixture was let sit in the plate for 1 hour to allow the dissolution of the pellet. If the sample appeared cloudy, more resuspension solution was added (50 μL at a time). 50 μL was transferred directly to the mass spec plate and the plate was sealed with the 384-well plate seal.
as §1
Results from certain assessment were presented blow. Cell crash method was utilized. Mass Shifted Peptide Theoretical Max signal is signal of an agent comprising —OH obtained when using the DhaA to convert input agent comprising —Cl into product agent comprising —OH form without involving cells (multiple agents may be converted simultaneously; in some embodiments, can be performed library by library). In some embodiments, each library pool plus positive and negative references was tested in a single well, which in some cases contain about a million or so cells. […]

DhaA enzyme, sequence (P0A3G2 whole entry): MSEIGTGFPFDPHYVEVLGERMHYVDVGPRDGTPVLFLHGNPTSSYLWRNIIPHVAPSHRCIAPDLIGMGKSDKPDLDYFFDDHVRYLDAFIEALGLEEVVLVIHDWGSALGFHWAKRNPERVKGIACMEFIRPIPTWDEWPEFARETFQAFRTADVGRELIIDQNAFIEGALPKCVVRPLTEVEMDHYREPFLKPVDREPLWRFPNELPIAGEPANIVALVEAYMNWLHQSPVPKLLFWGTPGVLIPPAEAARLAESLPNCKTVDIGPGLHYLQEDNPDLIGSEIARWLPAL

Turning to “HaloTagO2-Leu-Thr-Phe-ReN-Thr-Tyr-Trp-Ala-Gln-Cba-Az-Ser-Ala-Ala-NH2 [PEP000129]”, the “Mass Shifted Peptide Theoretical Max Signal” value at DhaA enzyme stood at 6E+06. For the same substance, in series [1], the “Peptide Signal in Cells (from cells; agents comprising —Cl)” value worked out at 0E+00, the “Mass Shifted Peptide Signal in Cells” value is listed as 1E+06 and the “Cell Penetration Score” value is reported as 19.

In the case of “HaloTagO2-Leu-Thr-Phe-ReN-Glu-Tyr-Trp-Ala-Gln-Cba-Az-Ser-Ala-Ala-NH2 [PEP000128]”, the “Mass Shifted Peptide Theoretical Max Signal” value on DhaA enzyme amounted to 4E+06. For the same substance, in series [1], the “Peptide Signal in Cells (from cells; agents comprising —Cl)” value is reported as 0E+00, the “Mass Shifted Peptide Signal in Cells” value is on record as 1E+05 and the “Cell Penetration Score” value is given as 3.

For “HaloTagO2-Leu-Thr-Phe-ReN-Glu-Tyr-Trp-Ala-Thr-Cba-Az-Ser-Ala-Ala-NHMe [PEP000137]”, the “Mass Shifted Peptide Theoretical Max Signal” value on DhaA enzyme amounted to 6E+06. In series [1], the “Peptide Signal in Cells (from cells; agents comprising —Cl)” value amounted to 0E+00, the “Mass Shifted Peptide Signal in Cells” value came to 4E+05 and the “Cell Penetration Score” value worked out at 6.

Take “HaloTagO2-Leu-Thr-Phe-ReN-Glu-Tyr-Trp-Ala-Ala-Cba-Az-Ser-Ala-Ala-NH2 [PEP000133]”: at DhaA enzyme, the “Mass Shifted Peptide Theoretical Max Signal” value turned out to be 5E+06. In addition, in series [1], the “Peptide Signal in Cells (from cells; agents comprising —Cl)” value is reported as 0E+00, the “Mass Shifted Peptide Signal in Cells” value is 3E+05 and the “Cell Penetration Score” value is 5.
